20 molecules from PubChem BioAssay AID256 (DTP/NCI, 2004) can be followed below.

The test system of this test is CD2F1 mice, L1210 leukemia ip, survival T/C. As to the kind of experiment: NCI In Vivo Anticancer Drug Screen. Data for tumor model L1210 Leukemia (intraperitoneal) in CD2F1 (CDF1) mice. The note with it: higher = longer survival. A digest of the protocol:
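Ratio T/C, where T is the treated-group value and C the vehicle-dosed control value, from mice implanted with a transplantable tumor.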

[1] abbreviates: endpoint: mean survival time, dose: 6.25 mg/kg/injection, schedule: Q04DX003 (ip), vehicle: saline with Tween-80.
Where [2] appears, read: endpoint: mean survival time, dose: 12.5 mg/kg/injection, schedule: Q04DX003 (ip), vehicle: saline with Tween-80.
The mark [3] stands for this setting: endpoint: mean survival time, dose: 25.0 mg/kg/injection, schedule: Q04DX003 (ip), vehicle: saline with Tween-80.
[4] abbreviates: endpoint: mean survival time, dose: 100.0 mg/kg/injection, schedule: Q01DX001 (ip), vehicle: saline with Tween-80.
Where [5] appears, read: endpoint: mean survival time, dose: 100.0 mg/kg/injection, schedule: Q01DX009 (ip), vehicle: saline with Tween-80.
Where [6] appears, read: endpoint: mean survival time, dose: 200.0 mg/kg/injection, schedule: Q01DX001 (ip), vehicle: saline with Tween-80.
The mark [7] stands for this setting: endpoint: mean survival time, dose: 200.0 mg/kg/injection, schedule: Q01DX009 (ip), vehicle: saline with Tween-80.
The mark [8] stands for this setting: endpoint: mean survival time, dose: 400.0 mg/kg/injection, schedule: Q01DX001 (ip), vehicle: saline with Tween-80.
The mark [9] stands for this setting: endpoint: mean survival time, dose: 100.0 mg/kg/injection, schedule: Q01DX001 (ip), vehicle: saline.
Where [10] appears, read: endpoint: mean survival time, dose: 200.0 mg/kg/injection, schedule: Q01DX001 (ip), vehicle: saline.
Where [11] appears, read: endpoint: mean survival time, dose: 100.0 mg/kg/injection, schedule: Q04DX003 (ip), vehicle: saline.
Where [12] appears, read: endpoint: mean survival time, dose: 100.0 mg/kg/injection, schedule: Q04DX003 (ip), vehicle: saline with Tween-80.
The mark [13] stands for this setting: endpoint: mean survival time, dose: 200.0 mg/kg/injection, schedule: Q04DX003 (ip), vehicle: saline with Tween-80.
Where [14] appears, read: endpoint: mean survival time, dose: 400.0 mg/kg/injection, schedule: Q04DX003 (ip), vehicle: saline with Tween-80.

Several values for one entry are separate records, joined by “and”; a condition that tells them apart may be missing. Equal entries are not always repeated. Inconclusive results and toxic doses are left out.

`CN1CC2(c3ccccc3)CN(C)CC(c3ccccc3)(C1)C2=O`: the T/C was 98 % of control (endpoint: mean survival time, dose: 6.25 mg/kg/injection, schedule: Q01DX009 (ip), vehicle: saline with Tween-80); 98 % of control under setting [1]; 95 % of control (endpoint: mean survival time, dose: 12.5 mg/kg/injection, schedule: Q01DX009 (ip), vehicle: saline with Tween-80); 98 % of control under setting [2]; 103 % of control (endpoint: mean survival time, dose: 25.0 mg/kg/injection, schedule: Q01DX009 (ip), vehicle: saline with Tween-80); 92 % of control under setting [3].

As for `CN1CCCC(OC(=O)N(C)C)C1` (stereo unspecified), the T/C reads like this: (endpoint: mean survival time, dose: 100.0 mg/kg/injection, schedule: Q01DX009 (ip), vehicle: saline) 96 % of control; (endpoint: mean survival time, dose: 200.0 mg/kg/injection, schedule: Q01DX009 (ip), vehicle: saline) 98 % of control.

Take `CN1N(C(O)C(Cl)(Cl)Cl)C12CCCCC2` (stereo unspecified): the T/C is 94 % of control (endpoint: mean survival time, dose: 12.0 mg/kg/injection, schedule: Q01DX001 (ip), vehicle: carboxymethylcellulose (CMC)); 97 % of control (endpoint: mean survival time, dose: 25.0 mg/kg/injection, schedule: Q01DX001 (ip), vehicle: carboxymethylcellulose (CMC)); 95 % of control (endpoint: mean survival time, dose: 50.0 mg/kg/injection, schedule: Q01DX001 (ip), vehicle: carboxymethylcellulose (CMC)); 95 % of control (endpoint: mean survival time, dose: 100.0 mg/kg/injection, schedule: Q01DX001 (ip), vehicle: carboxymethylcellulose (CMC)).

Consider `COC1OCC(OS(C)(=O)=O)C(OS(C)(=O)=O)C1OS(C)(=O)=O` (stereo unspecified), for which the T/C under setting [4] was 96 % of control; the T/C under setting [5] was 95 % of control and 100 % of control; the T/C under setting [6] was 97 % of control; the T/C under setting [7] is 96 % of control and 94 % of control; the T/C under setting [8] was 100 % of control; the T/C (endpoint: mean survival time, dose: 400.0 mg/kg/injection, schedule: Q01DX009 (ip), vehicle: saline with Tween-80) is 93 % of control and 96 % of control.

For the molecule `CC([NH-])Cc1ccccc1.CC([NH-])Cc1ccccc1.[Cl][Pt+2][Cl]` (stereo unspecified), the T/C was 96 % of control (endpoint: mean survival time, dose: 3.13 mg/kg/injection, schedule: Q04DX003 (ip), vehicle: distilled water + Tween-80); 96 % of control (endpoint: mean survival time, dose: 6.25 mg/kg/injection, schedule: Q04DX003 (ip), vehicle: distilled water + Tween-80); 96 % of control (endpoint: mean survival time, dose: 12.5 mg/kg/injection, schedule: Q04DX003 (ip), vehicle: distilled water + Tween-80); 86 % of control (endpoint: mean survival time, dose: 25.0 mg/kg/injection, schedule: Q04DX003 (ip), vehicle: distilled water + Tween-80); 86 % of control (endpoint: mean survival time, dose: 50.0 mg/kg/injection, schedule: Q04DX003 (ip), vehicle: distilled water + Tween-80); 96 % of control (endpoint: mean survival time, dose: 100.0 mg/kg/injection, schedule: Q04DX003 (ip), vehicle: distilled water + Tween-80). Moreover, the T/C (endpoint: mean survival time, dose: 200.0 mg/kg/injection, schedule: Q04DX003 (ip), vehicle: distilled water + Tween-80) is 89 % of control.

In the case of `Cc1cc(C)c2nc(-c3ccc(Cl)cc3)cc(C(=O)O)c2c1`, the T/C was 96 % of control under setting [9]; 94 % of control (endpoint: mean survival time, dose: 100.0 mg/kg/injection, schedule: Q04DX002 (ip), vehicle: Klucel (hydroxypropylcellulose) (HPC)); 94 % of control (endpoint: mean survival time, dose: 200.0 mg/kg/injection, schedule: Q04DX002 (ip), vehicle: Klucel (hydroxypropylcellulose) (HPC)).

For the molecule `Oc1c(C(Nc2ccccc2)c2ccccc2)ccc2cccnc12` (stereo unspecified), the T/C under setting [9] was 97 % of control; the T/C under setting [10] is 97 % of control; the T/C (endpoint: mean survival time, dose: 400.0 mg/kg/injection, schedule: Q01DX001 (ip), vehicle: saline) is 100 % of control.

For `COCCC1(CN2c3ccccc3Sc3ccc(Cl)cc32)CCN(C)C1` (stereo unspecified), the T/C runs as follows: under setting [11], 102 % of control; (endpoint: mean survival time, dose: 200.0 mg/kg/injection, schedule: Q04DX003 (ip), vehicle: saline) 105 % of control.

Consider `[Cl][Ga]([Cl])[Cl]`, for which the T/C (endpoint: mean survival time, dose: 50.0 mg/kg/injection, schedule: Q04DX003 (ip), vehicle: saline) is 96 % of control; the T/C under setting [9] was 92 % of control; the T/C under setting [11] is 108 % of control; the T/C under setting [10] was 95 % of control.

With `COc1csn[n+]1-c1ccc(C)cc1`, the T/C (endpoint: mean survival time, dose: 75.0 mg/kg/injection, schedule: Q01DX001 (ip), vehicle: saline) is 104 % of control.

Take `CC(=O)C1CCC2c3cc4c(c(C)c3CCC12C)CCC(OC(=O)C1CCCCC1)C4` (stereo unspecified): the T/C is, setting by setting: under setting [12], 101 % of control; under setting [13], 101 % of control; under setting [14], 104 % of control.

Regarding `COc1cc2c3c(c1O)-c1c(ccc(OC)c1OC)CC3N(C)CC2` (stereo unspecified), the T/C is 92 % of control under setting [4], 105 % of control under setting [6] and 97 % of control under setting [8].

As to `C=C(CC(=O)O)C(=O)O` (tested in a mixture with another compound), the T/C (endpoint: mean survival time, dose: 50.0 mg/kg/injection, schedule: Q01DX009 (ip), vehicle: saline with Tween-80) was 108 % of control; the T/C under setting [5] was 120 % of control; the T/C under setting [12] was 102 % of control; the T/C under setting [7] is 105 % of control; the T/C under setting [13] was 102 % of control.

With `Nc1nccc(N2CCCCC2)n1`, the T/C under setting [1] is 100 % of control, the T/C under setting [2] was 100 % of control and the T/C under setting [3] was 97 % of control.

Take `Nc1nc(Cl)c2[nH]cnc2n1`: the T/C runs as follows: (endpoint: mean survival time, dose: 13.3 mg/kg/injection, schedule: Q01DX009 (ip), vehicle: saline with Tween-80) 153 % of control; (endpoint: mean survival time, dose: 44.0 mg/kg/injection, schedule: Q01DX009 (ip), vehicle: saline with Tween-80) 151 % of control and 154 % of control; (endpoint: mean survival time, dose: 60.0 mg/kg/injection, schedule: Q04DX003 (ip), vehicle: saline with Tween-80) 181 % of control; (endpoint: mean survival time, dose: 66.0 mg/kg/injection, schedule: Q01DX009 (ip), vehicle: saline with Tween-80) 100 % of control; (endpoint: mean survival time, dose: 75.0 mg/kg/injection, schedule: Q04DX003 (ip), vehicle: saline with Tween-80) 160 % of control; (endpoint: mean survival time, dose: 88.0 mg/kg/injection, schedule: Q01DX009 (ip), vehicle: saline with Tween-80) 116 % of control. Moreover, the T/C was 111 % of control under setting [5]; 113 % of control (endpoint: mean survival time, dose: 132.0 mg/kg/injection, schedule: Q01DX009 (ip), vehicle: saline with Tween-80); 86 % of control (endpoint: mean survival time, dose: 150.0 mg/kg/injection, schedule: Q01DX009 (ip), vehicle: saline with Tween-80); 156 % of control and 168 % of control (endpoint: mean survival time, dose: 150.0 mg/kg/injection, schedule: Q04DX003 (ip), vehicle: saline with Tween-80); 122 % of control under setting [13]; 111 % of control (endpoint: mean survival time, dose: 300.0 mg/kg/injection, schedule: Q01DX009 (ip), vehicle: saline with Tween-80).

Take `CSc1nc(N)cc(=O)[nH]1`: the T/C is, setting by setting: (endpoint: mean survival time, dose: 50.0 mg/kg/injection, schedule: Q01DX001 (ip), vehicle: Klucel (hydroxypropylcellulose) (HPC)) 98 % of control; (endpoint: mean survival time, dose: 100.0 mg/kg/injection, schedule: Q01DX001 (ip), vehicle: Klucel (hydroxypropylcellulose) (HPC)) 96 % of control; (endpoint: mean survival time, dose: 200.0 mg/kg/injection, schedule: Q01DX001 (ip), vehicle: Klucel (hydroxypropylcellulose) (HPC)) 86 % of control.

`N=C(N)c1ccc(OCCCCOc2ccc(N)cc2)cc1`: the T/C runs as follows: (endpoint: mean survival time, dose: 50.0 mg/kg/injection, schedule: Q01DX009 (ip), vehicle: Klucel (hydroxypropylcellulose) (HPC)) 101 % of control; (endpoint: mean survival time, dose: 100.0 mg/kg/injection, schedule: Q01DX009 (ip), vehicle: Klucel (hydroxypropylcellulose) (HPC)) 94 % of control; (endpoint: mean survival time, dose: 200.0 mg/kg/injection, schedule: Q01DX009 (ip), vehicle: Klucel (hydroxypropylcellulose) (HPC)) 119 % of control.

For the molecule `CCc1c(Br)c(CC)c(Br)c(CC)c1Br`, the T/C is, setting by setting: under setting [12], 98 % of control; under setting [13], 97 % of control; under setting [14], 98 % of control.

For `S=C(Nc1ccccc1)Nc1ccccn1`, the T/C under setting [4] is 97 % of control, the T/C under setting [6] was 105 % of control and the T/C under setting [8] is 109 % of control.

With `Cc1cn(C2CC3OP(=O)(OCc4ccccc4)OCC3O2)c(=O)[nH]c1=O` (stereo unspecified), the T/C was 100 % of control (endpoint: median survival time, dose: 12.5 mg/kg/injection, schedule: Q01DX005 (ip), vehicle: distilled water + Tween-80); 101 % of control (endpoint: median survival time, dose: 25.0 mg/kg/injection, schedule: Q01DX005 (ip), vehicle: distilled water + Tween-80); 102 % of control (endpoint: median survival time, dose: 50.0 mg/kg/injection, schedule: Q01DX005 (ip), vehicle: distilled water + Tween-80); 104 % of control (endpoint: median survival time, dose: 100.0 mg/kg/injection, schedule: Q01DX005 (ip), vehicle: distilled water + Tween-80); 98 % of control (endpoint: median survival time, dose: 200.0 mg/kg/injection, schedule: Q01DX005 (ip), vehicle: distilled water + Tween-80).
